Experimental data published in ChEMBL document CHEMBL2346566, “Small molecule inhibitors of PCNA/PIP-box interaction suppress translesion DNA synthesis” (Bioorg Med Chem, 2013).
Calls of active or inactive are those of the source. No cut-off for these calls is given here.

How the values were obtained:
Type in all cases: functional, cell-based
HeLa = assay: Antiproliferative activity against human HeLa cells assessed as inhibition of at 10 uM after 18 hrs by assay
U2OS [1] = assay: Potentiation of cisplatin-induced cytotoxicity in human U2OS cells at 15 uM after 4 days by Alamar blue assay
U2OS [2] = assay: Cytotoxicity against human U2OS cells at 15 uM after 4 days by Alamar blue assay

Structure (SMILES)	Activity (HeLa)	Activity (U2OS [1])	Activity (U2OS [2])
O=C(Cc1cc(I)c(Oc2ccc(O)c(I)c2)c(I)c1)N1CCOCC1	Active		
CC(C)NC(=O)NC[C@@H](N)Cc1cc(I)c(Oc2ccc(O)cc2)c(I)c1	Active	Active	inactive
CCOCCNC(=O)CCc1cc(I)c(Oc2ccc(O)cc2)c(I)c1	Active		
CS(=O)(=O)NC[C@@H](N)Cc1cc(I)c(Oc2ccc(O)cc2)c(I)c1	Active		
O=C(CCc1cc(I)c(Oc2ccc(O)cc2)c(I)c1)N1CCOCC1	Active		
CC(=O)N[C@H](CO)Cc1cc(I)c(Oc2ccc(O)cc2)c(I)c1	Active		
O=C(CCc1cc(I)c(Oc2ccc(O)cc2)c(I)c1)NCC1CCCO1 (configuration not stated)	Active		
CNC(=O)Cc1cc(I)c(Oc2ccc(O)c(I)c2)c(I)c1	Active	Active	inactive
O=C(Cc1cc(I)c(Oc2ccc(O)c(I)c2)c(I)c1)NS(=O)(=O)c1ccccc1	Active		
CC(C)NC(=O)N[C@H](CO)Cc1cc(I)c(Oc2ccc(O)cc2)c(I)c1	Active		
CC(=O)NC[C@@H](N)Cc1cc(I)c(Oc2ccc(O)cc2)c(I)c1	Active	Active	inactive
COC(=O)N[C@H](CO)Cc1cc(I)c(Oc2ccc(O)cc2)c(I)c1	Active		
N[C@H](CO)Cc1cc(I)c(Oc2ccc(O)cc2)c(I)c1	Active	Active	inactive
O=C(CCc1cc(I)c(Oc2ccc(O)cc2)c(I)c1)NCCO	Active		
N[C@H](CNC(=O)N1CCOCC1)Cc1cc(I)c(Oc2ccc(O)cc2)c(I)c1	Active		
CN(C)C(=O)Cc1cc(I)c(Oc2ccc(O)c(I)c2)c(I)c1	Active		
CNC(=O)CCc1cc(I)c(Oc2ccc(O)cc2)c(I)c1	Active		
N[C@H](CNC(=O)CCN1CCOCC1)Cc1cc(I)c(Oc2ccc(O)cc2)c(I)c1	Active		
CS(=O)(=O)NC(=O)Cc1cc(I)c(Oc2ccc(O)c(I)c2)c(I)c1	Active		
